The text below walks through data of patent publication US20100076015A1, “Aminopyridine Derivatives” (VANTIA LIMITED, priority 2008, published 2010).

One may read the IC50 as the concentration needed to halve the response being measured. High values mean a need for much substance, low ones inhibition by little substance.

T1 sequence (P06870 25-262): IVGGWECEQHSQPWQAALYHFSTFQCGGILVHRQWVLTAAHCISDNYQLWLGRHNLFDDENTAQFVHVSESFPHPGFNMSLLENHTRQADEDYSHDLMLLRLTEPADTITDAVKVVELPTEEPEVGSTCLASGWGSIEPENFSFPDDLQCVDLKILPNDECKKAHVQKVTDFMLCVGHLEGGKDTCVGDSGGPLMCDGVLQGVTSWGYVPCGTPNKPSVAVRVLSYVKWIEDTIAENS

The assay addresses T1, Human KLK1 (Homo sapiens, UniProt P06870).
T1 construct: purchased Callbiochem (Calbiochem)
Description: Determination of the IC50 for KLK1 (fluorogenic substrate H-DVal-Leu-Arg-AFC). The format is biochemical. As to conditions: 37° C. An outline of the steps:
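Human KLK1 incubated at 37° C with fluorogenic substrate H-DVal-Leu-Arg-AFC and a range of test compound concentrations. Residual activity taken as initial reaction rate from absorbance change at 410 nm; IC50 derived from these rates.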
`CCC(C)[C@H](N)C(=O)N[C@@H](C(=O)NCc1ccc(N)nc1)[C@H](O)c1ccccc1` (stereo partly drawn) [Example 224, (S)-2-Amino-3-methyl-pentanoic acid {(1R,2R)-1-[(6-amino-pyridin-3-ylmethyl)-carbamoyl]-2-hydroxy-2-phenyl-ethyl}-amide] had a concentration for half-maximal inhibition (IC50) of 61.6 nM.

`CN1CCC[C@@H]1C(=O)N(C)[C@@H](Cc1ccccc1)C(=O)NCc1ccc(N)nc1` [Example 225, (R)-1-Methyl-pyrrolidine-2-carboxylic acid {(S)-1-[(6-amino-pyridin-3-ylmethyl)-carbamoyl]-2-phenyl-ethyl}-methyl-amide] gave a half-maximal inhibitory concentration (IC50) of 51.1 nM.

For the molecule `Cc1[nH]c(C(=O)N[C@@H](Cc2cccc(C(F)(F)F)c2)C(=O)NCc2ccc(N)nc2)c(C)c1C` [Example 230, 3,4,5-Trimethyl-1H-pyrrole-2-carboxylic acid [(S)-1-[(6-amino-pyridin-3-ylmethyl)-carbamoyl]-2-(3-trifluoromethyl-phenyl)-ethyl]-amide], the IC50 is 20.3 nM.

Consider `Cc1cc(C)c(C(=O)N[C@@H](Cc2cccc(F)c2)C(=O)NCc2ccc(N)nc2)[nH]1` [Example 236, 3,5-Dimethyl-1H-pyrrole-2-carboxylic acid [(S)-1-[(6-amino-pyridin-3-ylmethyl)-carbamoyl]-2-(3-fluoro-phenyl)-ethyl]-amide], for which the IC50 turned out to be 9 nM.

`Cc1cc(C)c(C(=O)N[C@@H](Cc2ccccc2)C(=O)NCc2ccc(N)nc2)[nH]1` [Example 237, 3,5-Dimethyl-1H-pyrrole-2-carboxylic acid {(S)-1-[(6-amino-pyridin-3-ylmethyl)-carbamoyl]-2-phenyl-ethyl}-amide] came in with a 50% inhibitory concentration (IC50) of 10.9 nM.

On to `Cc1cc(C)c(C(=O)N[C@@H](CC2CCCCC2)C(=O)NCc2ccc(N)nc2)[nH]1` [Example 238, 3,5-Dimethyl-1H-pyrrole-2-carboxylic acid {(S)-1-[(6-amino-pyridin-3-ylmethyl)-carbamoyl]-2-cyclohexyl-ethyl}-amide], for which the IC50 came to 35.2 nM.

For `Cc1cc(C)c(C(=O)N[C@@H](Cc2ccccc2Cl)C(=O)NCc2ccc(N)nc2)[nH]1` [Example 239, 3,5-Dimethyl-1H-pyrrole-2-carboxylic acid [(S)-1-[(6-amino-pyridin-3-ylmethyl)-carbamoyl]-2-(2-chloro-phenyl)-ethyl]-amide], the IC50 amounted to 6.5 nM.

Take `Cc1cc(C)c(C(=O)N[C@@H](Cc2ccccc2C(F)(F)F)C(=O)NCc2ccc(N)nc2)[nH]1` [Example 240, 3,5-Dimethyl-1H-pyrrole-2-carboxylic acid [(S)-1-[(6-amino-pyridin-3-ylmethyl)-carbamoyl]-2-(2-trifluoromethyl-phenyl)-ethyl]-amide]: the concentration for half-maximal inhibition (IC50) was determined as 1.5 nM.

As for `Cc1cc(C)c(C(=O)N[C@@H](Cc2c[nH]c3ccccc23)C(=O)NCc2ccc(N)nc2)[nH]1` [Example 241, 3,5-Dimethyl-1H-pyrrole-2-carboxylic acid [(S)-1-[(6-amino-pyridin-3-ylmethyl)-carbamoyl]-2-(1H-indol-3-yl)-ethyl]-amide], the concentration for half-maximal inhibition (IC50) was found to be 3.8 nM.

The molecule `Cc1cc(C)c(C(=O)N[C@@H](Cc2ccccc2C)C(=O)NCc2ccc(N)nc2)[nH]1` [Example 244, 3,5-Dimethyl-1H-pyrrole-2-carboxylic acid {(S)-1-[(6-amino-pyridin-3-ylmethyl)-carbamoyl]-2-o-tolyl-ethyl}-amide] had an IC50 of 7.8 nM.

For `Cc1cc(C)c(C(=O)N[C@@H](Cc2ccc(Cl)cc2)C(=O)NCc2ccc(N)nc2)[nH]1` [Example 246, 3,5-Dimethyl-1H-pyrrole-2-carboxylic acid [(S)-1-[(6-amino-pyridin-3-ylmethyl)-carbamoyl]-2-(4-chloro-phenyl)-ethyl]-amide], the 50% inhibitory concentration (IC50) came out at 3.5 nM.

Take `Cc1cc(C)c(C(=O)N[C@@H](Cc2ccc(O)cc2)C(=O)NCc2ccc(N)nc2)[nH]1` [Example 247, 3,5-Dimethyl-1H-pyrrole-2-carboxylic acid [(S)-1-[(6-amino-pyridin-3-ylmethyl)-carbamoyl]-2-(4-hydroxy-phenyl)-ethyl]-amide]: the IC50 is 200 nM.

Take `Cc1cc(C)c(C(=O)N[C@@H](Cc2cc(F)cc(F)c2)C(=O)NCc2ccc(N)nc2)[nH]1` [Example 249, 3,5-Dimethyl-1H-pyrrole-2-carboxylic acid [(S)-1-[(6-amino-pyridin-3-ylmethyl)-carbamoyl]-2-(3,5-difluoro-phenyl)-ethyl]-amide]: the IC50 was determined as 6.9 nM.

For `Cc1cc(C)c(C(=O)N[C@@H](Cc2csc3ccccc23)C(=O)NCc2ccc(N)nc2)[nH]1` [Example 250, 3,5-Dimethyl-1H-pyrrole-2-carboxylic acid {(S)-1-[(6-amino-pyridin-3-ylmethyl)-carbamoyl]-2-benzo[b]thiophen-3-yl-ethyl}-amide], half-maximal inhibition (IC50) was put at 0.8 nM.

`Cc1cc(C)c(C(=O)N[C@@H](Cc2c(F)c(F)c(F)c(F)c2F)C(=O)NCc2ccc(N)nc2)[nH]1` [Example 251, 3,5-Dimethyl-1H-pyrrole-2-carboxylic acid {(S)-1-[(6-amino-pyridin-3-ylmethyl)-carbamoyl]-2-pentafluorophenyl-ethyl}-amide]: half-maximal inhibition (IC50) required 128 nM.

Consider `Cc1cc(C)c(C(=O)N[C@@H](Cc2ccc(-c3ccccc3)cc2)C(=O)NCc2ccc(N)nc2)[nH]1` [Example 252, 3,5-Dimethyl-1H-pyrrole-2-carboxylic acid {(S)-1-[(6-amino-pyridin-3-ylmethyl)-carbamoyl]-2-biphenyl-4-yl-ethyl}-amide], for which the IC50 is 43.2 nM.

In the case of `Cc1ccc(C[C@H](NC(=O)c2[nH]c(C)cc2C)C(=O)NCc2ccc(N)nc2)cc1` [Example 253, 3,5-Dimethyl-1H-pyrrole-2-carboxylic acid {(S)-1-[(6-amino-pyridin-3-ylmethyl)-carbamoyl]-2-p-tolyl-ethyl}-amide], the IC50 came out at 12.5 nM.

In the case of `COc1ccc(C[C@H](NC(=O)c2[nH]c(C)cc2C)C(=O)NCc2ccc(N)nc2)cc1` [Example 254, 3,5-Dimethyl-1H-pyrrole-2-carboxylic acid [(S)-1-[(6-amino-pyridin-3-ylmethyl)-carbamoyl]-2-(4-methoxy-phenyl)-ethyl]-amide], 37.2 nM corresponded to half-maximal inhibition (IC50).

Molecule `CCOc1ccc(C[C@H](NC(=O)c2[nH]c(C)cc2C)C(=O)NCc2ccc(N)nc2)cc1` [Example 255, 3,5-Dimethyl-1H-pyrrole-2-carboxylic acid [(S)-1-[(6-amino-pyridin-3-ylmethyl)-carbamoyl]-2-(4-ethoxy-phenyl)-ethyl]-amide] returned an IC50 of 105 nM.

Regarding `Cc1cc(C)c(C(=O)N[C@@H](Cc2ccc(C(C)(C)C)cc2)C(=O)NCc2ccc(N)nc2)[nH]1` [Example 256, 3,5-Dimethyl-1H-pyrrole-2-carboxylic acid [(S)-1-[(6-amino-pyridin-3-ylmethyl)-carbamoyl]-2-(4-tert-butyl-phenyl)-ethyl]-amide], the midpoint of inhibition, the IC50, lay at 122 nM.

`Cc1cc(C)c(C(=O)N[C@@H](Cc2ccc3ccccc3n2)C(=O)NCc2ccc(N)nc2)[nH]1` [Example 257, 3,5-Dimethyl-1H-pyrrole-2-carboxylic acid {(S)-1-[(6-amino-pyridin-3-ylmethyl)-carbamoyl]-2-quinolin-2-yl-ethyl}-amide] had a half-maximal inhibitory concentration (IC50) of 12.1 nM.

`Cc1cc[nH]c1C(=O)N[C@@H](Cc1ccc(C(F)(F)F)cc1)C(=O)NCc1ccc(N)nc1` [Example 258, 3-Methyl-1H-pyrrole-2-carboxylic acid [(S)-1-[(6-amino-pyridin-3-ylmethyl)-carbamoyl]-2-(4-trifluoromethyl-phenyl)-ethyl]-amide] displayed an IC50 of 10.3 nM.
